In PubChem BioAssay (NCI):
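Five concentrations, 48 hours, 96-well plates. Definition used: TGI = concentration required for complete inhibition of growth.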

Key:
Assay in all cases: growth of human tumour cells (NCI), 48 h
CCRF-CEM leukemia = tested on: CCRF-CEM leukemia
RPMI-8226 leukemia = tested on: RPMI-8226 leukemia
KM12 colon = tested on: KM12 colon
DU-145 prostate = tested on: DU-145 prostate
UACC-62 melanoma = tested on: UACC-62 melanoma
SK-MEL-28 melanoma = tested on: SK-MEL-28 melanoma
EKVX NSCLC = tested on: EKVX NSCLC
ACHN renal = tested on: ACHN renal
K-562 leukemia = tested on: K-562 leukemia
U251 CNS = tested on: U251 CNS
TK-10 renal = tested on: TK-10 renal
HOP-62 NSCLC = tested on: HOP-62 NSCLC
NCI-H23 lung = tested on: NCI-H23 lung
NCI-H522 lung = tested on: NCI-H522 lung
OVCAR-3 ovarian = tested on: OVCAR-3 ovarian
SK-MEL-5 melanoma = tested on: SK-MEL-5 melanoma
SR leukemia = tested on: SR leukemia
A549 NSCLC = tested on: A549 NSCLC
SNB-75 CNS = tested on: SNB-75 CNS
786-0 renal = tested on: 786-0 renal
NCI-H460 lung = tested on: NCI-H460 lung
MALME-3M melanoma = tested on: MALME-3M melanoma
SK-MEL-2 melanoma = tested on: SK-MEL-2 melanoma
IGROV1 ovarian = tested on: IGROV1 ovarian
HS 578T breast = tested on: HS 578T breast
UACC-257 melanoma = tested on: UACC-257 melanoma
SF-268 CNS = tested on: SF-268 CNS
HT29 colon = tested on: HT29 colon
SK-OV-3 ovarian = tested on: SK-OV-3 ovarian
UO-31 renal = tested on: UO-31 renal
M14 melanoma = tested on: M14 melanoma
MDA-N = tested on: MDA-N
SN12C renal = tested on: SN12C renal
PC-3 prostate = tested on: PC-3 prostate
SF-295 CNS = tested on: SF-295 CNS
BT-549 breast = tested on: BT-549 breast
OVCAR-5 ovarian = tested on: OVCAR-5 ovarian
T-47D breast = tested on: T-47D breast
HCT-15 colon = tested on: HCT-15 colon
HCT-116 colon = tested on: HCT-116 colon
RXF 393 renal = tested on: RXF 393 renal
MCF7 breast = tested on: MCF7 breast
OVCAR-4 ovarian = tested on: OVCAR-4 ovarian
SW-620 colon = tested on: SW-620 colon
OVCAR-8 ovarian = tested on: OVCAR-8 ovarian
NCI/ADR-RES ovarian = tested on: NCI/ADR-RES ovarian
LOX IMVI melanoma = tested on: LOX IMVI melanoma
MOLT-4 leukemia = tested on: MOLT-4 leukemia
CAKI-1 renal = tested on: CAKI-1 renal
COLO 205 colon = tested on: COLO 205 colon
A498 renal = tested on: A498 renal
SF-539 CNS = tested on: SF-539 CNS
HOP-92 NSCLC = tested on: HOP-92 NSCLC
SNB-19 CNS = tested on: SNB-19 CNS
MDA-MB-231 breast = tested on: MDA-MB-231 breast
NCI-H226 lung = tested on: NCI-H226 lung
MDA-MB-435 = tested on: MDA-MB-435
HCC-2998 colon = tested on: HCC-2998 colon
HL-60(TB) leukemia = tested on: HL-60(TB) leukemia

## O=C(N1CCOCC1)C1(c2ccccc2)CCNCC1
CCRF-CEM leukemia
  TGI: 78.8 µM
RPMI-8226 leukemia
  TGI: > 100 µM
KM12 colon
  TGI: > 100 µM
DU-145 prostate
  TGI: > 100 µM
UACC-62 melanoma
  TGI: > 100 µM
SK-MEL-28 melanoma
  TGI: > 100 µM
EKVX NSCLC
  TGI: > 100 µM
ACHN renal
  TGI: > 100 µM
K-562 leukemia
  TGI: > 100 µM
U251 CNS
  TGI: > 100 µM
TK-10 renal
  TGI: > 100 µM
HOP-62 NSCLC
  TGI: > 100 µM
NCI-H23 lung
  TGI: > 100 µM
NCI-H522 lung
  TGI: > 100 µM
OVCAR-3 ovarian
  TGI: > 100 µM
SK-MEL-5 melanoma
  TGI: > 100 µM
SR leukemia
  TGI: > 100 µM
A549 NSCLC
  TGI: > 100 µM
SNB-75 CNS
  TGI: > 100 µM
786-0 renal
  TGI: > 100 µM
NCI-H460 lung
  TGI: > 100 µM
MALME-3M melanoma
  TGI: > 100 µM
SK-MEL-2 melanoma
  TGI: > 100 µM
IGROV1 ovarian
  TGI: > 100 µM
HS 578T breast
  TGI: > 100 µM
UACC-257 melanoma
  TGI: > 100 µM
SF-268 CNS
  TGI: > 100 µM
HT29 colon
  TGI: > 100 µM
SK-OV-3 ovarian
  TGI: > 100 µM
UO-31 renal
  TGI: > 100 µM
M14 melanoma
  TGI: > 100 µM
MDA-N
  TGI: > 100 µM
SN12C renal
  TGI: > 100 µM
PC-3 prostate
  TGI: > 100 µM
SF-295 CNS
  TGI: > 100 µM
BT-549 breast
  TGI: > 100 µM
OVCAR-5 ovarian
  TGI: > 100 µM
T-47D breast
  TGI: > 100 µM
HCT-15 colon
  TGI: > 100 µM
HCT-116 colon
  TGI: > 100 µM
RXF 393 renal
  TGI: > 100 µM
MCF7 breast
  TGI: > 100 µM
OVCAR-4 ovarian
  TGI: > 100 µM
SW-620 colon
  TGI: > 100 µM
OVCAR-8 ovarian
  TGI: > 100 µM
NCI/ADR-RES ovarian
  TGI: > 100 µM
LOX IMVI melanoma
  TGI: > 100 µM
MOLT-4 leukemia
  TGI: > 100 µM
CAKI-1 renal
  TGI: > 100 µM
COLO 205 colon
  TGI: > 100 µM
A498 renal
  TGI: > 100 µM
SF-539 CNS
  TGI: > 100 µM
HOP-92 NSCLC
  TGI: > 100 µM
SNB-19 CNS
  TGI: > 100 µM
MDA-MB-231 breast
  TGI: > 100 µM
NCI-H226 lung
  TGI: > 100 µM
MDA-MB-435
  TGI: > 100 µM

## CC1=NN(C(=O)CC(=O)Nc2ccccc2C)C(=O)C1N=Nc1ccc(S(=O)(=O)c2ccc(N=NC3C(=O)N(C(=O)CC(=O)Nc4ccccc4C)N=C3C)cc2)cc1 (stereo not given)
CCRF-CEM leukemia
  TGI: > 100 µM
RPMI-8226 leukemia
  TGI: > 100 µM
KM12 colon
  TGI: > 100 µM
DU-145 prostate
  TGI: > 100 µM
UACC-62 melanoma
  TGI: > 100 µM
SK-MEL-28 melanoma
  TGI: > 100 µM
EKVX NSCLC
  TGI: > 100 µM
ACHN renal
  TGI: > 100 µM
K-562 leukemia
  TGI: > 100 µM
U251 CNS
  TGI: > 100 µM
TK-10 renal
  TGI: > 100 µM
HOP-62 NSCLC
  TGI: > 100 µM
NCI-H23 lung
  TGI: > 100 µM
NCI-H522 lung
  TGI: > 100 µM
OVCAR-3 ovarian
  TGI: > 100 µM
SK-MEL-5 melanoma
  TGI: > 100 µM
SR leukemia
  TGI: > 100 µM
A549 NSCLC
  TGI: > 100 µM
SNB-75 CNS
  TGI: > 100 µM
786-0 renal
  TGI: > 100 µM
NCI-H460 lung
  TGI: > 100 µM
MALME-3M melanoma
  TGI: > 100 µM
SK-MEL-2 melanoma
  TGI: > 100 µM
IGROV1 ovarian
  TGI: > 100 µM
HS 578T breast
  TGI: > 100 µM
UACC-257 melanoma
  TGI: > 100 µM
SF-268 CNS
  TGI: > 100 µM
HT29 colon
  TGI: > 100 µM
SK-OV-3 ovarian
  TGI: > 100 µM
UO-31 renal
  TGI: > 100 µM
M14 melanoma
  TGI: > 100 µM
MDA-N
  TGI: > 100 µM
SN12C renal
  TGI: > 100 µM
PC-3 prostate
  TGI: > 100 µM
SF-295 CNS
  TGI: > 100 µM
BT-549 breast
  TGI: > 100 µM
OVCAR-5 ovarian
  TGI: > 100 µM
T-47D breast
  TGI: > 100 µM
HCT-15 colon
  TGI: > 100 µM
HCT-116 colon
  TGI: > 100 µM
RXF 393 renal
  TGI: > 100 µM
HCC-2998 colon
  TGI: > 100 µM
MCF7 breast
  TGI: > 100 µM
OVCAR-4 ovarian
  TGI: > 100 µM
HL-60(TB) leukemia
  TGI: > 100 µM
OVCAR-8 ovarian
  TGI: > 100 µM
NCI/ADR-RES ovarian
  TGI: > 100 µM
LOX IMVI melanoma
  TGI: > 100 µM
MOLT-4 leukemia
  TGI: > 100 µM
CAKI-1 renal
  TGI: > 100 µM
COLO 205 colon
  TGI: > 100 µM
A498 renal
  TGI: > 100 µM
SF-539 CNS
  TGI: > 100 µM
HOP-92 NSCLC
  TGI: > 100 µM
SNB-19 CNS
  TGI: > 100 µM
MDA-MB-231 breast
  TGI: > 100 µM
NCI-H226 lung
  TGI: > 100 µM
MDA-MB-435
  TGI: > 100 µM
